Data set [1] has as its system DOPAC (3,4-dihydroxyphenylacetic acid) in the rat striatum. Description: Increase of DOPAC in the rat striatum after systemic administration (in vivo neurochemistry). Conditions: estimated ED50 on increase of DOPAC in rat striatum, curve fit, range in brackets covers 95% of fits; for ED50 DOPAC: s.c.; for ED50: Rattus norvegicus, sc. The text has this:
After the behavioural activity sessions, the rats are decapitated and their brains rapidly taken out and put on an ice-cold petri-dish. The limbic forebrain, the striatum, the frontal cortex and the remaining hemispheral parts of each rat are dissected and frozen. Each brain part is subsequently analyzed with respect to its content of monoamines and their metabolites.
The monoamine transmitter substances (NA (noradrenaline), DA (dopamine), 5-HT (serotonin)) as well as their amine (NM (normethanephrine), 3-MT (3-methoxytyramine)) and acid (DOPAC (3,4-dihydroxyphenylacetic acid), 5-HIAA (5-hydroxyindoleacetic acid), HVA (homovanillic acid)) metabolites are quantified in brain tissue homogenates by HPLC separations and electrochemical detection.
The analytical method is based on two chromatographic separations dedicated for amines or acids. Two chromatographic systems share a common auto injector with a 10-port valve and two sample loops for simultaneous injection on the two systems. Both systems are equipped with a reverse phase column (Luna C18(2), dp 3 μm, 50*2 mm i.d., Phenomenex) and electrochemical detection is accomplished at two potentials on glassy carbon electrodes (MF-1000, Bioanalytical Systems, Inc.). The column effluent is passed via a T-connection to the detection cell or to a waste outlet. This is accomplished by two solenoid valves, which block either the waste or detector outlet. By preventing the chromatographic front from reaching the detector, better detection conditions are achieved. The aqueous mobile phase (0.4 ml/min) for the acid system contains citric acid 14 mM, sodium citrate 10 mM, MeOH 15% (v/v) and EDTA 0.1 mM. Detection potentials relative to Ag/AgCl reference are 0.45 and 0.60V. The aqueous ion pairing mobile phase (0.5 ml/min) for the amine system contains citric acid 5 mM, sodium citrate 10 mM, MeOH 9% (v/v), MeCN 10.5% v/v), decane sulfonic acid 0.45 mM, and EDTA 0.1 mM. Detection potentials relative to Ag/AgCl reference are 0.45 and 0.65V.
ED50 values for the increase of DOPAC in striatum are calculated by curve fitting.

The subject of data set [2] is Locomotor activity in drug-naive rats. Description: Locomotor activity in drug-naive rats (in vivo behaviour). Further details: species or system rat. Conditions: recorded for 60 minutes immediately after drug administration. From the text: Photobeam sensors are spaced 2.5 cm apart.
For data set [3], the system named is amphetamine-induced hyper-locomotion. Description: Reduction of amphetamine-induced hyper-locomotion (in vivo behaviour). Conditions: range in brackets covers 95% of fits; for ED50: Rattus norvegicus, read-out: ED50 reduction of amphetamine-induced hyper-locomotion, rats pre-treated with d-amphetamine 1.5 mg/kg i.p., test compound s.c., curve fit.

We go through 17 compounds from patent US8492372B2, “Modulators of dopamine neurotransmission” (Integrated Research Laboratories Sweden AB, priority 2008, dated 2013).

Structures can show the parent of a compound that is named as a salt.

For the compound `O=S(=O)(c1ccc2c(c1)OC(CN1CCCC1)OC2)C(F)(F)F` (centres unmarked) (as salt: fumaric acid salt) [Example 7, 1-({7-[(TRIFLUOROMETHYL)SULFONYL]-4H-1,3-BENZODIOXIN-2-YL}METHYL)PYRROLIDINE], the melting point (as a rule, the temperature, or range, at which the solid turns liquid) stood at 184 °C.

Turning to `CCNCC1OCc2ccc(S(=O)(=O)C(F)(F)F)cc2O1` (centres unmarked) (as salt: hydrochloric acid salt), the melting point was determined as 169 °C.

In the case of `CCCNCC1OCc2ccc(C(F)(F)F)cc2O1` (centres unmarked) (as salt: hydrochloric acid salt) [Example 1, N-{[7-(TRIFLUOROMETHYL)-4H-1,3-BENZODIOXIN-2-YL]METHYL}PROPAN-1-AMIN], the melting point is 203 °C.

Regarding `CCCNCC1OCc2ccc(S(C)(=O)=O)cc2O1` (centres unmarked) (as salt: hydrochloric acid salt) [Example 3, N-{[7-(METHYLSULFONYL)-4H-1,3-BENZODIOXIN-2-YL]METHYL}PROPAN-1-AMINE], the melting point worked out at 213 °C.

As to `CCCNCC1OCc2ccc(S(=O)(=O)C(F)(F)F)cc2O1` (centres unmarked) (as salt: hydrochloric acid salt) [Example 8, N-({7-[(TRIFLUOROMETHYL)SULFONYL]-4H-1,3-BENZODIOXIN-2-YL}METHYL)PROPAN-1-AMINE], the melting point was 201 °C.

`CNCC1OCc2ccc(S(C)(=O)=O)cc2O1` (centres unmarked) (as salt: hydrochloric acid salt) [Example 12, N-METHYL-1-[7-(METHYLSULFONYL)-4H-1,3-BENZODIOXIN-2-YL]METHANAMINE]: the melting point was 225 °C.

`CCCNCC1OCc2cc(F)c(Br)cc2O1` (centres unmarked) (as salt: hydrochloric acid salt) [Example 19, N-[(7-BROMO-6-FLUORO-4H-1,3-BENZODIOXIN-2-YL)METHYL]PROPAN-1-AMINE] yielded a melting point of 182 °C.

In turn, `CCCNCC1OCc2c(F)cc(Br)cc2O1` (centres unmarked) (as salt: oxalic acid salt) [Example 16, N-[(7-BROMO-5-FLUORO-4H-1,3-BENZODIOXIN-2-YL)METHYL]PROPAN-1-AMINE] displayed a melting point of 215 °C.

As for `CCCNCC1OCc2ccc(S(C)(=O)=O)cc2O1` (single isomer, unassigned; (+)) [Example 5, (+)-N-{[7-(METHYLSULFONYL)-4H-1,3-BENZODIOXIN-2-YL]METHYL}PROPAN-1-AMINE], the “ED50 DOPAC” value in data set [1] is recorded as 12 (9.3-14) μmol/kg. Further, the Locomotor activity in data set [2] (3.7 μmol/kg) is 9173 ± 3160 counts/60 min ± SEM; in data set [2] (11 μmol/kg) it was 8274 ± 801 counts/60 min ± SEM; in data set [2] (33 μmol/kg), 4854 ± 771 counts/60 min ± SEM. Also, the ED50 in data set [3] was determined as 15 µmol/kg.

Take `CCCNCC1OCc2ccc(S(C)(=O)=O)cc2O1` (single isomer, unassigned; (-)) [Example 4, (−)-N-{[7-(METHYLSULFONYL)-4H-1,3-BENZODIOXIN-2-YL]METHYL}PROPAN-1-AMINE]: in data set [1], the “ED50 DOPAC” value is on record as 27 (23-31) μmol/kg. The Locomotor activity is listed as 9158 ± 2094 counts/60 min ± SEM in data set [2] (3.7 μmol/kg), 11153 ± 1257 counts/60 min ± SEM in data set [2] (11 μmol/kg) and 12588 ± 331 counts/60 min ± SEM in data set [2] (33 μmol/kg). The “ED50 reduction of amphetamine-induced hyper-locomotion” value in data set [3] (rats pre-treated with d-amphetamine 1.5 mg/kg i.p., test compound s.c., curve fit) was 27 (19-35) μmol/kg.

With `CCCNCC1OCc2ccc(C(F)(F)F)cc2O1` (centres unmarked) [Example 1, N-{[7-(TRIFLUOROMETHYL)-4H-1,3-BENZODIOXIN-2-YL]METHYL}PROPAN-1-AMIN], the results for the ED50 in data set [1] and in data set [3] were 17 µmol/kg and 3.9 µmol/kg, respectively. Further, the values for the Locomotor activity in data set [2] (3.7 μmol/kg), in data set [2] (11 μmol/kg) and in data set [2] (33 μmol/kg) were 8038 ± 1487 counts/60 min ± SEM, 7279 ± 968 counts/60 min ± SEM and 2682 ± 802 counts/60 min ± SEM, respectively.

Take `O=S(=O)(c1ccc2c(c1)OC(CN1CCCC1)OC2)C(F)(F)F` (centres unmarked) [Example 7, 1-({7-[(TRIFLUOROMETHYL)SULFONYL]-4H-1,3-BENZODIOXIN-2-YL}METHYL)PYRROLIDINE]: the ED50 is 48 µmol/kg in data set [1] and 50 µmol/kg in data set [3]. Besides, the figures for the Locomotor activity in data set [2] (3.7 μmol/kg), in data set [2] (11 μmol/kg) and in data set [2] (33 μmol/kg) were 9548 ± 1455 counts/60 min ± SEM, 7270 ± 278 counts/60 min ± SEM and 11818 ± 2775 counts/60 min ± SEM, respectively.

As for `CCCNCC1OCc2ccc(S(=O)(=O)C(F)(F)F)cc2O1` (centres unmarked) [Example 8, N-({7-[(TRIFLUOROMETHYL)SULFONYL]-4H-1,3-BENZODIOXIN-2-YL}METHYL)PROPAN-1-AMINE], the ED50 is 7 µmol/kg in data set [1] and 4.9 µmol/kg in data set [3]. Besides, the figures for the Locomotor activity in data set [2] (3.7 μmol/kg), in data set [2] (11 μmol/kg) and in data set [2] (33 μmol/kg) were 11601 ± 583 counts/60 min ± SEM, 7064 ± 1032 counts/60 min ± SEM and 2641 ± 757 counts/60 min ± SEM, respectively.

In the case of `CCCNCC1OCc2c(F)cc(Br)cc2O1` (centres unmarked) [Example 16, N-[(7-BROMO-5-FLUORO-4H-1,3-BENZODIOXIN-2-YL)METHYL]PROPAN-1-AMINE], the ED50 in data set [1] was 20 µmol/kg. The Locomotor activity is given as 8637 ± 1217 counts/60 min ± SEM in data set [2] (3.7 μmol/kg), 7537 ± 2127 counts/60 min ± SEM in data set [2] (11 μmol/kg) and 7393 ± 1395 counts/60 min ± SEM in data set [2] (33 μmol/kg).

As for `CCCNCC1OCc2c(F)cc(S(C)(=O)=O)cc2O1` (centres unmarked) [Example 17, N-{[5-FLUORO-7-(METHYLSULFONYL)-4H-1,3-BENZODIOXIN-2-YL]METHYL}PROPAN-1-AMINE], in data set [1], the ED50 was 8.6 µmol/kg. In addition, the Locomotor activity in data set [2] (3.7 μmol/kg) is recorded as 10520 ± 1381 counts/60 min ± SEM; in data set [2] (11 μmol/kg), 8330 ± 2194 counts/60 min ± SEM; in data set [2] (33 μmol/kg), 3319 ± 140 counts/60 min ± SEM.

Regarding `CCCNCC1OCc2cc(F)c(S(C)(=O)=O)cc2O1` (centres unmarked) [Example 20, N-{[6-FLUORO-7-(METHYLSULFONYL)-4H-1,3-BENZODIOXIN-2-YL]METHYL}PROPAN-1-AMINE], the ED50 in data set [1] was 11 µmol/kg. Moreover, the Locomotor activity in data set [2] (3.7 μmol/kg) is given as 8830 ± 1277 counts/60 min ± SEM; in data set [2] (11 μmol/kg), 10181 ± 1385 counts/60 min ± SEM; in data set [2] (33 μmol/kg), 5502 ± 474 counts/60 min ± SEM.

`CS(=O)(=O)c1ccc2c(c1)OC(CN1CCCCC1)OC2` (centres unmarked) [Example 21, 1-{[7-(METHYLSULFONYL)-4H-1,3-BENZODIOXIN-2-YL]METHYL}PIPERIDINE]: the results for the ED50 in data set [1] and in data set [3] were 13 µmol/kg and 14 µmol/kg, respectively. For the same compound, the Locomotor activity in data set [2] (3.7 μmol/kg) is listed as 8285 ± 721 counts/60 min ± SEM; in data set [2] (11 μmol/kg), 6585 ± 707 counts/60 min ± SEM; in data set [2] (33 μmol/kg) it was 4197 ± 923 counts/60 min ± SEM.
